# Test results reported in patent US9061028B2, “Process for the preparation of Nilotinib” (Natco Pharma Limited, priority 2012, dated 2015).
# Where a name gives a salt, the structure may show the parent alone.
# Tests used:
# [1] = Thermal stability of polymorph form on heating at 60-70° C., examined by XRPD; format: physicochemical; conditions: for Polymorph form detected after heating: oil bath 60-70° C., XRPD
# [2] = Polymorph stability under accelerated stress conditions (40±2° C., 75±5% RH), by XRD; format: physicochemical; conditions: accelerated high humidity stress conditions
compound,measurement,setting,value
Cc1cn(-c2cc(NC(=O)c3ccc(C)c(Nc4nccc(-c5cccnc5)n4)c3)cc(C(F)(F)F)c2)cn1 [Nilotinib hydrochloride],Stability to heat,[1]; 70° C./40 hours,stable to heat
same,Polymorph form detected after heating,[1]; time of heating 10 hours,XRD pattern unchanged
same,Polymorph form detected after heating,[1]; time of heating 20 hours,XRD pattern unchanged
same,Polymorph form detected after heating,[1]; time of heating 30 hours,XRD pattern unchanged
same,Polymorph form detected after heating,[1]; time of heating 40 hours,XRD pattern unchanged
same,XRD spectra after storage,[2],essentially the same and unchanged
same,Hygroscopicity,40° C./75% RH,non-hygroscopic
same,Final moisture content after 60 days 40° C. at humidity of 75%,"60 days, 40° C./75% RH, karl-fischer",5.2%
same,Initial moisture Content (%),"before storage, karl-fischer",5.26%
